Experimental data as given in US20250171462A1 (NICO Therapeutics, Inc., priority 2022, published 2025).
Read-outs that look alike come from different tables or passages of the source.

Molecular target: T1, full-length SARM1 (FL-SARM1) (Homo sapiens, UniProt Q6SZW1)
T1 sequence (Q6SZW1 28-724): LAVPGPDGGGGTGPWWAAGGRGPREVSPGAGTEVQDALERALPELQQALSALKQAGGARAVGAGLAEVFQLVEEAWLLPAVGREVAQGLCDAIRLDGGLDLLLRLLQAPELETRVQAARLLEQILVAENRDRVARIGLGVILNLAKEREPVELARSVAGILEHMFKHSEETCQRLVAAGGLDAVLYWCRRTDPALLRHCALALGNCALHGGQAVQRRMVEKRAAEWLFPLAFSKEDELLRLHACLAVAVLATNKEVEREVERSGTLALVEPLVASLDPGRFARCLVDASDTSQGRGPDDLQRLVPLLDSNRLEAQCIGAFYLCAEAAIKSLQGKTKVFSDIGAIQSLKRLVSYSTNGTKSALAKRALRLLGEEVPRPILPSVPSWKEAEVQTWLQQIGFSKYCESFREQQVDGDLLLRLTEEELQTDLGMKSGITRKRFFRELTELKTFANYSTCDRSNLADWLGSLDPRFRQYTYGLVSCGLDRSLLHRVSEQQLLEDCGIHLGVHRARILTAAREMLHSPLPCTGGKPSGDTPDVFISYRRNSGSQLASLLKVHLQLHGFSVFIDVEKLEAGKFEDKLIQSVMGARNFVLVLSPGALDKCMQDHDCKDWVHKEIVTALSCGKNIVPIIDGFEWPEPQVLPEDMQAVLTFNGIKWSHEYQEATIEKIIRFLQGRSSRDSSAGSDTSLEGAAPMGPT
Test: FL-SARM1 cellular lysate assay (NAD/NADH-Glo detection of remaining NAD+, NMN-activated)

[1] = Activity (IC50 class), 11 point curve
[2] = Activity (μM) (IC50), 11 point curve
[3] = read-out: Activity (IC50 class), 11 point curve

SMILES	IC50 [1] [µM]	IC50 [2] [µM]	IC50 [3] [µM]
Cc1ccc(NC(=O)[C@H]2CC[C@@H](C)N2c2ccc(C#N)cn2)cc1-c1ncc(F)cn1 [Example 285, (2R,5R)-1-(5-cyanopyridin-2-yl)-N-[3-(5-fluoropyrimidin-2-yl)-4-methylphenyl]-5-methylpyrrolidine-2-carboxamide]	1 to 10	2.2	–
Cc1ccc(NC(=O)C2CC23CCC3)cc1-c1cccnn1 (racemic) [Example 293, N-(4-methyl-3-pyridazin-3-ylphenyl)spiro[2.3] hexane-2-carboxamide]	1 to 10	2.4	–
Cc1ccc(NC(=O)N2C3CC2CN(c2ccn(C)n2)C3)cc1-c1ccccn1 [Example 85, 3-(1-methylpyrazol-3-yl)-N-(4-methyl-3-pyridin-2-ylphenyl)-3,6-diazabicyclo[3.1.1]heptane-6-carboxamide]	> 10	23	–
Cc1ccc(NC(=O)N2C3C[C@H](C)C[C@@H]2C3)cc1-c1cc(F)cnn1 [Example 220, cis-N-[3-(5-fluoropyridazin-3-yl)-4-methylphenyl]-3-methyl-6-azabicyclo[3.1.1]heptane-6-carboxamide]	–	0.1	0.0001 to 1
O=C(Nc1ccc(C(F)(F)F)c(-c2ccccn2)c1)N1C2CCCC1C2 [Example 18, N-(3-(pyridin-2-yl)-4-(trifluoromethyl)phenyl)-6-azabicyclo[3.1.1]heptane-6-carboxamide]	–	0.3	0.0001 to 1
Cc1ccc(NC(=O)N2[C@@H]3C[C@@H](C)C[C@H]2C3)cc1-c1ccccn1 [Example 11, cis-3-Methyl-N-(4-methyl-3-(pyridin-2-yl)phenyl)-6-azabicyclo[3.1.1]heptane-6-carboxamide]	–	0.01	0.0001 to 1
COC(=O)C12CCCC(C1)N2C(=O)Nc1ccc(C)c(-c2ccccn2)c1 (centres unmarked) [Example 9, Methyl 6-[[4-methyl-3-(2-pyridyl)phenyl]carbamoyl]-6-azabicyclo[3.1.1]heptane-1-carboxylate]	–	0.1	0.0001 to 1
O=C(Nc1ccc(C(F)(F)F)c(-c2ncc(F)cn2)c1)N1CCCC2CC2C1 (centres unmarked) [Example 304, N-(3-(5-fluoropyrimidin-2-yl)-4-(trifluoromethyl)phenyl)-3-azabicyclo[5.1.0]octane-3-carboxamide]	1 to 10	2.4	–
COC(C)[C@@]12CC(C[C@@H](C)C1)N2C(=O)Nc1ccc(C(F)(F)F)c(-c2nccnn2)c1 (single isomer, unassigned) [Example 211, cis-N-(3-(1,2,4-triazin-3-yl)-4-(trifluoromethyl)phenyl)-1-(1-methoxyethyl)-3-methyl-6-azabicyclo[3.1.1]heptane-6-carboxamide]	–	0.004	0.0001 to 1
Cc1ccc(NC(=O)C(Cc2ncccn2)C2CCC2)cc1-c1ncc(F)cn1 (racemic) [Example 302, 2-cyclobutyl-N-(3-(5-fluoropyrimidin-2-yl)-4-methylphenyl)-3-(pyrimidin-2-yl)propanamide]	1 to 10	3	–
Cc1ccc(NC(=O)N2CCC3CC3CC2)cc1-c1ncc(F)cn1 (centres unmarked) [Example 300, N-(3-(5-fluoropyrimidin-2-yl)-4-methylphenyl)-4-azabicyclo[5.1.0]octane-4-carboxamide]	1 to 10	1.2	–
Cc1ccc(NC(=O)N2[C@@H]3C[C@@H](C)C[C@H]2C3)cc1-c1cncc(C#N)n1 [Example 238, cis-N-[3-(6-cyanopyrazin-2-yl)-4-methylphenyl]-3-methyl-6-azabicyclo[3.1.1]heptane-6-carboxamide]	–	0.04	0.0001 to 1
CO[C@@H]1CCCCN(C(=O)Nc2ccc(C(F)(F)F)c(-c3ncc(F)cn3)c2)C1 [Example 308, (R)-N-(3-(5-fluoropyrimidin-2-yl)-4-(trifluoromethyl)phenyl)-3-methoxyazepane-1-carboxamide]	> 10	32	–
Cc1ccc(NC(=O)N2C3CCC2[C@H](C)C3)cc1-c1ncc(F)cn1 (single isomer, unassigned) [Example 198, trans-N-[3-(5-fluoropyrimidin-2-yl)-4-methylphenyl]-2-methyl-7-azabicyclo[2.2.1]heptane-7-carboxamide]	–	0.3	0.0001 to 1
COc1cccnc1-c1cc(NC(=O)N2C3CCCC2C3)ccc1C [Example 58, N-(3-(3-methoxypyridin-2-yl)-4-methylphenyl)-6-azabicyclo[3.1.1]heptane-6-carboxamide]	> 10	12	–
Cc1ccnc(-c2cc(NC(=O)[C@@H]3CC3(F)F)ccc2C)c1 [Example 161, (1S)-2,2-difluoro-N-[4-methyl-3-(4-methylpyridin-2-yl)phenyl]cyclopropane-1-carboxamide]	1 to 10	3.5	–

SMILES	IC50 [1] [µM]	IC50 [2] [µM]	IC50 [3] [µM]
Cc1ccc(NC(=O)N2C3CC2c2ncnn2C3)cc1-c1ccccn1 (centres unmarked) [Example 80, N-(4-methyl-3-pyridin-2-ylphenyl)-3,5,6,9-tetrazatricyclo[6.1.1.02,6]deca-2,4-diene-9-carboxamide]	> 10	13	–
Cc1ccc(NC(=O)C2C[C@H]3C[C@@H]23)cc1-c1ccccn1 (stereo partly drawn) [Example 117, cis-N-(4-methyl-3-pyridin-2-ylphenyl)bicyclo[2.1.0]pentane-2-carboxamide]	1 to 10	4.6	–
O=C(Nc1ccc(C(F)(F)F)c(-c2ncc(F)cn2)c1)[C@H]1C[C@H]2C[C@H]2N1c1ccccn1 [Example 301, (1R,3R,5R)-N-(3-(5-fluoropyrimidin-2-yl)-4-(trifluoromethyl)phenyl)-2-(pyridin-2-yl)-2-azabicyclo[3.1.0]hexane-3-carboxamide]	1 to 10	2.1	–
Cc1ccc(NC(=O)[C@H]2C[C@@H]3C[C@@H]3N2c2ncccn2)cc1-c1ncc(F)cn1 [Example 269, (1S,3R,5S)-N-[3-(5-fluoropyrimidin-2-yl)-4-methylphenyl]-2-pyrimidin-2-yl-2-azabicyclo[3.1.0]hexane-3-carboxamide]	> 10	47	–
Cc1ccc(NC(=O)[C@H]2C[C@H]3C[C@H]3N2Cc2ncccn2)cc1-c1ncc(F)cn1 [Example 261]	> 10	34	–
Cc1ccc(NC(=O)[C@H]2[C@@H]3CC[C@@H](C3)N2c2ncccn2)cc1-c1ncc(F)cn1 [Example 322]	> 10	13	–
CCO[C@@H]1CC2C[C@H](C1)N2C(=O)Nc1ccc(C)c(-c2ccccn2)c1 [Example 84, cis-3-ethoxy-N-(4-methyl-3-(pyridin-2-yl)phenyl)-6-azabicyclo[3.1.1]heptane-6-carboxamide]	1 to 10	1.6	–
Cc1ccc(NC(=O)N2C3CCCC2C3)cc1-c1ncc(F)cc1F [Example 248, N-[3-(3,5-difluoropyridin-2-yl)-4-methylphenyl]-6-azabicyclo[3.1.1]heptane-6-carboxamide]	–	0.2	0.0001 to 1
Cc1ccc(NC(=O)N2C3CCCC2C3)cc1-c1ncc(Cl)cn1 [Example 252, N-[3-(5-chloropyrimidin-2-yl)-4-methylphenyl]-6-azabicyclo[3.1.1]heptane-6-carboxamide]	–	0.5	0.0001 to 1
Cc1ccc(NC(=O)[C@H]2C3CC(F)(F)C[C@H]32)cc1-c1cccnn1 (stereo partly drawn) [Example 288, cis-3,3-difluoro-N-(4-methyl-3-pyridazin-3-ylphenyl)bicyclo[3.1.0] hexane-6-carboxamide]	> 10	15	–
CCc1ccnc(-c2cc(NC(=O)N3C4C[C@@H](C)C[C@H]3C4)ccc2C)n1 [Example 237, cis-N-[3-(4-ethylpyrimidin-2-yl)-4-methylphenyl]-3-methyl-6-azabicyclo[3.1.1]heptane-6-carboxamide]	1 to 10	1.1	–
Cc1cnc(-c2cc(NC(=O)N3C4C[C@@H](C)C[C@H]3C4)c(F)cc2C)nn1 [Example 239, cis-N-[2-fluoro-4-methyl-5-(6-methyl-1,2,4-triazin-3-yl)phenyl]-3-methyl-6-azabicyclo[3.1.1]heptane-6-carboxamide]	–	0.2	0.0001 to 1
Cc1cc(F)c(NC(=O)N2[C@@H]3C[C@@H](C)C[C@@]2(C(C)(C)O)C3)cc1-c1ncc(F)cn1 (racemic) [Example 183, cis-N-(2-fluoro-5-(5-fluoropyrimidin-2-yl)-4-methylphenyl)-1-(2-hydroxypropan-2-yl)-3-methyl-6-azabicyclo[3.1.1]heptane-6-carboxamide]	–	0.06	0.0001 to 1
Cc1ccc(NC(=O)OCC2CC2)cc1-c1ncccn1 [Example 328]	> 10	31	–
COCC1COc2ccccc2CN1C(=O)Nc1ccc(C)c(-c2ncc(F)cn2)c1 (racemic) [Example 309, N-(3-(5-fluoropyrimidin-2-yl)-4-methylphenyl)-3-(methoxymethyl)-2,3-dihydrobenzo[f][1,4] oxazepine-4(5H)-carboxamide]	1 to 10	1.1	–
